Measurements as given in patent US20250092033A1, “HETEROAROMATIC NITROGEN-OXIDE COMPOUND, PREPARATION METHOD THEREFOR, AND USE THEREOF” (BEIJING AVISTONE BIOTECHNOLOGY CO., LTD., priority 2021, published 2025).

Columns and labels:
Type in all cases: biochemical
Details in all cases: 10 concentrations, 3-fold dilution
[1] = molecular target: T1, MET D1228N (Homo sapiens, UniProt P08581, D1228N); experiment: Kinase inhibition experiment (HTRF KinEASE-TK kit), mutant MET D1228N
T1 construct: purchased Signalchem M52-12IG
Method: (§1) The activity of the compounds was determined by detecting the residual amount of ATP after reacting with wild-type or mutant MET protein kinase by using an HTRF KinEASE-TK kit. […]
(§2) The compounds were determined on the selected kinase, the solvent control was set and a total of 10 concentrations were detected, diluted 3-fold, 2 replicates per concentration.
(§3) 1 volume of 5× kinase reaction buffer and 4 volumes of water; 5 mM MgCl2; 1 mM DTT; 1 mM MnCl2; or 2500 nm SEB.
(§4) 1) 10 nl or 4 μlof the diluted compound was transferred to each well of the reaction plate (784075 or 264706, Greiner or Thermo) with a pipette, the reaction plate was sealed with a sealing plate, and centrifuged at 1000 for 1 minute.
(§5) 2) 2× MET was prepared from 1× enzyme reaction buffer, 5 μl or 2 μl kinase was added to each well of the reaction plate, the reaction plate was sealed with a sealing plate, centrifuged at 1000 g for 30 seconds and incubated at room temperature for 10 min.
(§6) 3) a mixed solution of 2× TK-substrate-biotin and ATP were prepared from 1× enzyme reaction buffer solution, 5 μl or 2 μl TK-substrate-biotin/ATP of the mixed solution was added into a reaction plate, the reaction plate was sealed with a sealing plate, centrifuged at 1000 g for 30 seconds and reacted for 50 minutes or 10 minutes at room temperature.
(§7) 4) a mixed solution of 4× or 2× Sa-XL 665 and TK-antibody-Cryptate were prepared from HTRF detection buffer, 5 or 10 μl of the mixed solution of Sa-XL 665 and TK-antibody-Cryptate was added into each well, centrifuged at 1000 g for 30 seconds, and reacted at room temperature for 1 h.
(§8) 5) the fluorescence signals at 615 nm (cryptate) and 665 nm (XL665) were read with Envision 2104 or TECAN.
(§9) The data was analyzed using GraphPad Prism 6.0 or 7 software, and the dose-response curve was fitted with nonlinear S-curve regression, and the IC50 value was calculated therefrom.
(§10) Enzyme Inhibition Percent (%)=100-(Signalmpd-SignalAve_PC)/(SignalAve_VC-SignalAve_PC)×100

[2] = molecular target: T2, MET F1200I (Homo sapiens, UniProt P08581, F1200I); experiment: Kinase inhibition experiment (HTRF KinEASE-TK kit), mutant MET F1200I
T2 construct: purchased Signalchem M52-12GG/Y767-2
Method: as §1, §2, §3, §4, §5, §6, §7, §8, §9, §10

[3] = molecular target: T3, wild type (WT) MET kinase (Homo sapiens, UniProt P08581); experiment: Kinase inhibition experiment (HTRF KinEASE-TK kit), wild-type MET
T3 construct: purchased Carna 08-151
Method: as §1, §2, §3, §4, §5, §6, §7, §8, §9, §10

T1 sequence (P08581 25-1390 D1228N): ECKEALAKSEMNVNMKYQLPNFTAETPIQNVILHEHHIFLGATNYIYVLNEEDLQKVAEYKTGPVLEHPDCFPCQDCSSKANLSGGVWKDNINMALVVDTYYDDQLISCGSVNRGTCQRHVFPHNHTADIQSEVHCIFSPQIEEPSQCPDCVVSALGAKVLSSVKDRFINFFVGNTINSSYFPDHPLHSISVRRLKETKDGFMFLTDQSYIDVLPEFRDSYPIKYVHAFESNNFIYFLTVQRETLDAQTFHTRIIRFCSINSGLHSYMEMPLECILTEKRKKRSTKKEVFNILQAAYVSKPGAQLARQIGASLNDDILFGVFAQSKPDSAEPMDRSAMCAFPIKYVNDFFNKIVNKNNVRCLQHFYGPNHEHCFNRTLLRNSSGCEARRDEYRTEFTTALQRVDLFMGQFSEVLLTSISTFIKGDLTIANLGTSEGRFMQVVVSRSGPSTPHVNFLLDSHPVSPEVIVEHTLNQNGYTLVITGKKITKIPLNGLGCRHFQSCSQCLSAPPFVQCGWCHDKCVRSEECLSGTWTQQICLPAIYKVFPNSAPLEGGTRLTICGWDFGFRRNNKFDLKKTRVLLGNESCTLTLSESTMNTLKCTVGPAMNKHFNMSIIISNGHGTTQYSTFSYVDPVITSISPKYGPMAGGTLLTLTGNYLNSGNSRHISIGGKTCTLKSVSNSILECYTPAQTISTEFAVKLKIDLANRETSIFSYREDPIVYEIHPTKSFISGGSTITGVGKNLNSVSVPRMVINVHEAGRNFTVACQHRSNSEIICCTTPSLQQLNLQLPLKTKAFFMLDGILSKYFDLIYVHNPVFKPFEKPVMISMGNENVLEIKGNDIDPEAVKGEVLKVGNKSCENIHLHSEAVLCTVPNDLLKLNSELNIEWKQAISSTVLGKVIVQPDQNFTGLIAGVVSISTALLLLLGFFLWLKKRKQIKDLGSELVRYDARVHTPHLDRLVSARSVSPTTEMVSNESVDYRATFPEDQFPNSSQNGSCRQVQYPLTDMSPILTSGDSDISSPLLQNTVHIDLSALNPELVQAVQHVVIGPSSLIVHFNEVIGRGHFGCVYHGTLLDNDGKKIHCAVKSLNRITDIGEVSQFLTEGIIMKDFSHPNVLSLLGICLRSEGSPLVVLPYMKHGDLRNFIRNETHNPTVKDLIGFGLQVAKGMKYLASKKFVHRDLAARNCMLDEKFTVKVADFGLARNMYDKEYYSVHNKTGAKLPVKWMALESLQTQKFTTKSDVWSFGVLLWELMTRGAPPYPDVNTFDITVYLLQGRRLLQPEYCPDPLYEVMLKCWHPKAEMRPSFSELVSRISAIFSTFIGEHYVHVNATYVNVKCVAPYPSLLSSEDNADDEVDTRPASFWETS
T3 sequence (P08581 25-1390): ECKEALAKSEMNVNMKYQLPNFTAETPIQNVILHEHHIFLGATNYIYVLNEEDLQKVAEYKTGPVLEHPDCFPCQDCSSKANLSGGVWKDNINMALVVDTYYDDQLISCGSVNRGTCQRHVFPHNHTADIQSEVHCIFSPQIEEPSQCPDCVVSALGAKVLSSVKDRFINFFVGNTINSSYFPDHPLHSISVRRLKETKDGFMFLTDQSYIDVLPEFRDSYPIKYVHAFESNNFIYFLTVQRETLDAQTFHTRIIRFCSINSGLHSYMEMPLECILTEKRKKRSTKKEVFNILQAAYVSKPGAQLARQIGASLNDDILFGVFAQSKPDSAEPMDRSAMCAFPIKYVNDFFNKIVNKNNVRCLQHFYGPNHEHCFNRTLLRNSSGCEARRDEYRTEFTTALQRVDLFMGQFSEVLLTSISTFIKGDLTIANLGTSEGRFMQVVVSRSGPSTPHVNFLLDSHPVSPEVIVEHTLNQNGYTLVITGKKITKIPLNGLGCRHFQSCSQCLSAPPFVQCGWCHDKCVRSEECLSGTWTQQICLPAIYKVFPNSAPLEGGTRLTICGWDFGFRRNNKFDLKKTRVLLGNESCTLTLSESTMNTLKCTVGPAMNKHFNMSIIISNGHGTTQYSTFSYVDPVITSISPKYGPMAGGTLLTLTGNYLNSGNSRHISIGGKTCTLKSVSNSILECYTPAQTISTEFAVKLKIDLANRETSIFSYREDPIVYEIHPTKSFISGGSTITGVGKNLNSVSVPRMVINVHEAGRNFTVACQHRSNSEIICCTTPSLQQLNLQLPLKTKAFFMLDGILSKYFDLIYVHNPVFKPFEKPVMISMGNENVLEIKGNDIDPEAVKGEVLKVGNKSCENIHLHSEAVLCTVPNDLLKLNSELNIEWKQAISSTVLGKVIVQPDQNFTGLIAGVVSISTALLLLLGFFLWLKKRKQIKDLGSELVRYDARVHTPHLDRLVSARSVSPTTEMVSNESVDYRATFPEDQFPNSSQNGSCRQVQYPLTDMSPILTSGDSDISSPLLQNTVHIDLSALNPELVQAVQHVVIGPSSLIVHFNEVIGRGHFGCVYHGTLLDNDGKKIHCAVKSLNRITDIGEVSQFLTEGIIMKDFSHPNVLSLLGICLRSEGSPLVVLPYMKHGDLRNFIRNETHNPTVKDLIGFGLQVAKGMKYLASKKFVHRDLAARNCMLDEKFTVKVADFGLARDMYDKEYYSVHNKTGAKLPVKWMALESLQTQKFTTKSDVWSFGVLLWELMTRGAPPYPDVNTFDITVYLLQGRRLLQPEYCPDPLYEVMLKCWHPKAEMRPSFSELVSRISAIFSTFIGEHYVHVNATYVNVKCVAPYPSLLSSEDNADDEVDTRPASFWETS
T2 sequence (P08581 25-1390 F1200I): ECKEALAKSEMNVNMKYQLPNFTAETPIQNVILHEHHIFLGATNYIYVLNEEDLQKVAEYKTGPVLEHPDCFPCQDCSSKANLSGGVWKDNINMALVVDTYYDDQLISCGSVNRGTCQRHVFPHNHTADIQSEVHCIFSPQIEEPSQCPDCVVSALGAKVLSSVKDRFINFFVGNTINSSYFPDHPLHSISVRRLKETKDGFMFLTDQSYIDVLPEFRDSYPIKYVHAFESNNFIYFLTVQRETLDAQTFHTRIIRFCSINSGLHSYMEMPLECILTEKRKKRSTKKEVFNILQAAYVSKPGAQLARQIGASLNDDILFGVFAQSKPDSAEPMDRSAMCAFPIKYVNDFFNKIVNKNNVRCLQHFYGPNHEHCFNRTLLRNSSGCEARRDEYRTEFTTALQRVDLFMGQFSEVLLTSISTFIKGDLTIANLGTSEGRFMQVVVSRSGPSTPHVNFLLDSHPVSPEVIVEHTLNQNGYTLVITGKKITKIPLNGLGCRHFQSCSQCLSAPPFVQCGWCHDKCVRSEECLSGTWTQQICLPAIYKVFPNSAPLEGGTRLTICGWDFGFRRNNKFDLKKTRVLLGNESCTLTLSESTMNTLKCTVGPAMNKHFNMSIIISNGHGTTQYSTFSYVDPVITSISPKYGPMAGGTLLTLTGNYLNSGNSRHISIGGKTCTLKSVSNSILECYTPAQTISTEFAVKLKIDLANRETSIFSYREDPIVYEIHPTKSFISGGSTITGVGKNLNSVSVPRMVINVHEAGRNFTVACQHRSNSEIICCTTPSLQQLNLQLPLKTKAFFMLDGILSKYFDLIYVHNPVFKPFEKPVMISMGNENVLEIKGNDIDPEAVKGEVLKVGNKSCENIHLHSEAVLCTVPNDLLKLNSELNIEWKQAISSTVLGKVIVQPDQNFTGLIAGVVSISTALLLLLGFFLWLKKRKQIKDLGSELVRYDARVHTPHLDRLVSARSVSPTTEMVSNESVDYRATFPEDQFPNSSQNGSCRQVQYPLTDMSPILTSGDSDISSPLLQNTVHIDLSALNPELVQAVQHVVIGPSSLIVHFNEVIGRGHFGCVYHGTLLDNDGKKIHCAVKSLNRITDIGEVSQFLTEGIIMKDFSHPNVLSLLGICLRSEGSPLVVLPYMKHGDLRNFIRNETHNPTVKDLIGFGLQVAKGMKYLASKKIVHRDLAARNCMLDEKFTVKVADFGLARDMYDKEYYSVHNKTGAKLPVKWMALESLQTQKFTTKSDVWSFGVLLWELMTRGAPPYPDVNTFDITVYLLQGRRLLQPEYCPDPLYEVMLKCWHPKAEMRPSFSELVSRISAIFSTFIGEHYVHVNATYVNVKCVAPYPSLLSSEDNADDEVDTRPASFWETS

SMILES	IC50 [1] [nM]	IC50 [2] [nM]	IC50 [3] [nM]
O=C(Nc1ccc(Oc2ccnc3[nH]nc(NCCO)c23)c(F)c1)c1cccc(-c2ccc(F)cc2)[n+]1[O-] [Final product 1]	35.4	5.8	2.3
O=C(Nc1ccc(Oc2ccnc3[nH]nc(N[C@H]4CC[C@H](O)CC4)c23)c(F)c1)c1ccc(Cl)c(-c2ccc(F)cc2)[n+]1[O-] [Final product 64]	45.6	22.5	
CCC(O)CNc1n[nH]c2nccc(Oc3ccc(NC(=O)c4cccc(-c5ccc(F)cc5)[n+]4[O-])cc3F)c12 (stereo not drawn) [Final product 9]	25.6	20.8	3.8
C[C@H](CO)Nc1n[nH]c2nccc(Oc3ccc(NC(=O)c4ccc(Cl)c(-c5ccc(F)cc5Cl)[n+]4[O-])cc3F)c12 [Final product 66]	11	35.5	2.7
CSc1ccc(C(=O)Nc2ccc(Oc3ccnc4[nH]nc(N[C@H](C)CO)c34)c(F)c2)[n+]([O-])c1-c1ccc(F)cc1 [Final product 86]	10.2	29.7	6.4
COc1ccc2ncnc(Nc3ccc(NC(=O)c4cccc(-c5ccc(F)cc5)[n+]4[O-])cc3F)c2c1O[C@H](C)CO [Final product 181, (R)-2-((3-fluoro-4-((5-((1-hydroxypropan-2-yl)oxy)-6-methoxyquinazolin-4-yl)amino)phenyl)carbamoyl)-6-(4-fluorophenyl)pyridine 1-oxide]	29.2		11.7
O=C(Nc1ccc(Oc2ccnc3[nH]nc(N4CCC[C@H](CO)C4)c23)c(F)c1)c1cccc(-c2ccc(F)cc2)[n+]1[O-] [Final product 33]	30.5	21.1	9.7
C[C@H](CO)Nc1n[nH]c2nccc(Oc3ccc(NC(=O)c4ccc(C(F)(F)F)c(-c5ccc(F)cc5)[n+]4[O-])cc3F)c12 [Final product 82]	48.1	29.6	17.4
O=C(Nc1ccc(Oc2ccnc3[nH]nc(NCC(O)C(F)(F)F)c23)c(F)c1)c1cccc(-c2ccc(F)cc2)[n+]1[O-] (stereo not drawn) [Final product 11]	35.7	16.8	6.3
CC1(CO)CCN(c2n[nH]c3nccc(Oc4ccc(NC(=O)c5cccc(-c6ccc(F)cc6)[n+]5[O-])cc4F)c23)CC1 [Final product 29]	15.8	20.4	5.2
C[C@H](CO)Nc1n[nH]c2nccc(Oc3ccc(NC(=O)c4ccc(Cl)c(-c5ccc(Cl)cc5)[n+]4[O-])cc3F)c12 [Final product 65]	37.4	42.4	10.8
C[C@H](CO)Nc1n[nH]c2nccc(Oc3ccc(NC(=O)c4ccc(S(C)(=O)=O)c(-c5ccc(F)cc5)[n+]4[O-])cc3F)c12 [Final product 87]	20.6	23	5.3
C[C@H](CO)Nc1n[nH]c2nccc(Oc3cc(F)c(NC(=O)c4ccc(Cl)c(-c5ccc(F)cc5)[n+]4[O-])cc3Cl)c12 [Final product 158]	29.4	15.9	2.5
C[C@H](CO)Nc1n[nH]c2nccc(Oc3ccc(NC(=O)c4ccc(C#N)c(-c5ccc(F)cc5)[n+]4[O-])cc3F)c12 [Final product 83]	30.4	6.2	3.2
C[C@@H](CO)Cn1ccc2ncnc(Oc3ccc(NC(=O)c4cccc(-c5ccc(F)cc5)[n+]4[O-])cc3F)c21 [Final product 170, (R)-2-((3-fluoro-4-((5-(3-hydroxy-2-methylpropyl)-5H-pyrrolo[3,2-d]pyrimidin-4-yl)oxy)phenyl)carbamoyl)-6-(4-fluorophenyl)pyridine 1-oxide]	16.2	8.5	4.2
C[C@H](CO)Nc1n[nH]c2nccc(Oc3ccc(NC(=O)c4cc(C5CC5)cc(-c5ccc(F)cc5)[n+]4[O-])cc3F)c12 [Final product 91]	41.2		12.1
O=C(Nc1ccc(Oc2ccnc3[nH]nc(N[C@H]4C[C@H](O)C4)c23)c(F)c1)c1cccc(-c2ccc(F)cc2)[n+]1[O-] [Final product 23]	21	12.5	3.3

SMILES	IC50 [1] [nM]	IC50 [2] [nM]	IC50 [3] [nM]
C[C@H](CO)Nc1n[nH]c2nccc(Oc3ccc(NC(=O)c4ccnc(-c5ccc(F)cc5)[n+]4[O-])cc3F)c12 [Final product 96]	14.1	4.5	2.2
CC[C@@H](CO)Nc1n[nH]c2nccc(Oc3ccc(NC(=O)c4ccc(Cl)c(-c5ccc(F)cc5)[n+]4[O-])cc3F)c12 [Final product 59]	20.3	7.9	12.7
C[C@@H](CO)Nc1n[nH]c2nccc(Oc3ccc(NC(=O)c4cccc(-c5ccc(F)cc5)[n+]4[O-])cc3F)c12 [Final product 3]	13.1	18.3	4.3
O=C(Nc1ccc(Oc2ccnc3[nH]nc(N4CCO[C@H](CO)C4)c23)c(F)c1)c1cccc(-c2ccc(F)cc2)[n+]1[O-] [Final product 35]	14.7	17.9	2
O=C(Nc1ccc(Oc2ccnc3[nH]nc(NC4CC(CO)C4)c23)c(Cl)c1)c1cccc(-c2ccc(F)cc2)[n+]1[O-] (stereo not drawn) [Final product 113]	22.5	9.2	3.3
C[C@H](CO)Nc1n[nH]c2nccc(Oc3ccc(NC(=O)c4cccc(-c5ccc(Cl)cc5)[n+]4[O-])cc3F)c12 [Final product 42]	36.2	14.2	1.4
O=C(Nc1ccc(Oc2ccnc3[nH]nc(NCC4(CO)CC(O)C4)c23)c(F)c1)c1cccc(-c2ccc(F)cc2)[n+]1[O-] (stereo not drawn) [Final product 20]	29.9	20.1	6.9
O=C(Nc1ccc(Oc2ccnc3[nH]nc(N[C@H]4CC[C@@H](O)C4)c23)c(Cl)c1)c1ccc(F)c(-c2ccc(F)cc2)[n+]1[O-] [Final product 119]	30.2	9.8	18
C[C@H](CO)Nc1n[nH]c2nccc(Oc3ccc(NC(=O)c4ccc(N(C)C)c(-c5ccc(F)cc5)[n+]4[O-])cc3F)c12 [Final product 89]	16.4	17.6	5.3
C[C@H](CO)Cn1ccc2ncnc(Oc3ccc(NC(=O)c4cccc(-c5ccc(F)cc5)[n+]4[O-])cc3F)c21 [Final product 169, (S)-2-((3-fluoro-4-((5-(3-hydroxy-2-methylpropyl)-5H-pyrrolo[3,2-d]pyrimidin-4-yl)oxy)phenyl)carbamoyl)-6-(4-fluorophenyl)pyridine 1-oxide]	6.9	2.1	1.8
Cc1ccc(C(=O)Nc2ccc(Oc3ccnc4[nH]nc(N[C@H](C)CO)c34)cc2F)[n+]([O-])c1-c1ccc(F)cc1 [Final product 160]	19.6	12.9	5.7
Cc1ccc(C(=O)Nc2ccc(Oc3ccnc4[nH]nc(N[C@H]5COC[C@@H]5O)c34)c(Cl)c2)[n+]([O-])c1-c1ccc(F)cc1 [Final product 129]	21.1	8.8	0.6
O=C(Nc1ccc(Oc2ccnc3[nH]nc(N4CCO[C@@H](CO)C4)c23)c(F)c1)c1cccc(-c2ccc(F)cc2)[n+]1[O-] [Final product 34]	18.8	12.3	2.7
C[C@H](CO)Nc1n[nH]c2nccc(Oc3ccc(NC(=O)c4ccc(OCC(F)(F)F)c(-c5ccc(F)cc5)[n+]4[O-])cc3Cl)c12 [Final product 142]	45.1	33	18
O=C(Nc1ccc(Oc2ccnc3[nH]nc(N[C@H]4COC[C@@H]4O)c23)c(Cl)c1)c1cccc(-c2ccc(F)cc2)[n+]1[O-] [Final product 115]	10.9	6	0.8
O=C(Nc1ccc(Oc2ccnc3[nH]nc(N[C@H]4COC[C@@H]4O)c23)c(Cl)c1)c1ccc(F)c(-c2ccc(F)cc2)[n+]1[O-] [Final product 120]	17.6	14.5	1.3
C[C@H](CO)Nc1n[nH]c2nccc(Oc3ccc(NC(=O)c4ccc(F)c(-c5ccc(F)cc5)[n+]4[O-])c(F)c3)c12 [Final product 155]	27.4	13.2	5.6
